Laboratory results from patent US9073855B2, “BCL-2 selective apoptosis-inducing agents for the treatment of cancer and immune diseases” (AbbVie Inc., priority 2008, dated 2015).

How the values were obtained:
GST-Bcl-XL = GST-Bcl-XL (Homo sapiens, UniProt Q07817); experiment: TR-FRET binding assay, GST-Bcl-XL with F-Bak peptide probe; conditions: TR-FRET Binding Affinity
In short: (§1)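 Displacement of a fluorescein-labelled Bak peptide from the GST-tagged protein was followed by time-resolved FRET with a terbium anti-GST donor after 3 h incubation at room temperature. Inhibition constants were calculated with Wang's equation.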

GST-Bcl-2 = GST-Bcl-2 (Homo sapiens, UniProt P10415); experiment: TR-FRET binding assay, GST-Bcl-2 with F-Bak peptide probe; conditions: for Ki: TR-FRET Binding Affinity; for Binding selectivity ratio (Bcl-XL Ki/Bcl-2 Ki): ratio of TR-FRET Ki values, Bcl-XL over Bcl-2
In short: as §1

[1] = GST-Bcl-XL, F-Bak peptide probe

Chain of GST-Bcl-2 (P10415 whole entry): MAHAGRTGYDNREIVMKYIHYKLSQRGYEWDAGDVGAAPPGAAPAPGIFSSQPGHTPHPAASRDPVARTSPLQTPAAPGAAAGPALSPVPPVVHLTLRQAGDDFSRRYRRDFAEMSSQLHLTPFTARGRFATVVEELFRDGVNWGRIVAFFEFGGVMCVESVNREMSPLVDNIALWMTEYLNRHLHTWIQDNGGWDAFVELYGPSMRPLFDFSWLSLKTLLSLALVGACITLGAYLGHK
Chain of GST-Bcl-XL (Q07817 whole entry): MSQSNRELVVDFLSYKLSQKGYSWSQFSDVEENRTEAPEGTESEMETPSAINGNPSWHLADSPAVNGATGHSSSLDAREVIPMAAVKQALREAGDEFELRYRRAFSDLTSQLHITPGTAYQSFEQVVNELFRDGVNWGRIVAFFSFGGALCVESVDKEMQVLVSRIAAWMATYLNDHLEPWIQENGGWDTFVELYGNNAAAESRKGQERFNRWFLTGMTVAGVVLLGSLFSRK

Row | Structure (SMILES) | Ki (GST-Bcl-XL; [1]) | Ki (GST-Bcl-2; GST-Bcl-2, F-Bak peptide probe) | Binding selectivity ratio (Bcl-XL Ki/Bcl-2 Ki) (GST-Bcl-2) | Ki (GST-Bcl-XL) | Ki (GST-Bcl-2)
1 | CN(C)CC(=O)N1CCO[C@@H](COc2ncc(S(=O)(=O)NC(=O)c3ccc(N4CCN(CC5=C(c6ccc(Cl)cc6)CC(C)(C)CC5)CC4)cc3Oc3cccc4[nH]cnc34)cc2Cl)C1 [Example 424, 2-(1H-benzimidazol-4-yloxy)-N-[(5-chloro-6-{[(2R)-4-(N,N-dimethylglycyl)morpholin-2-yl]methoxy}pyridin-3-yl)sulfonyl]-4-(4-{[2-(4-chlorophenyl)-4,4-dimethylcyclohex-1-en-1-yl]methyl}piperazin-1-yl)benzamide] | 7.82 nM | < 0.01 nM | 782.5 | – | –
2 | CN(C)CC(=O)N1CCO[C@H](COc2ncc(S(=O)(=O)NC(=O)c3ccc(N4CCN(CC5=C(c6ccc(Cl)cc6)CC(C)(C)CC5)CC4)cc3Oc3cccc4[nH]ncc34)cc2Cl)C1 [Example 425, N-[(5-chloro-6-{[(2S)-4-(N,N-dimethylglycyl)morpholin-2-yl]methoxy}pyridin-3-yl)sulfonyl]-4-(4-{[2-(4-chlorophenyl)-4,4-dimethylcyclohex-1-en-1-yl]methyl}piperazin-1-yl)-2-(1H-indazol-4-yloxy)benzamide] | 3.99 nM | 0.003 nM | 1282.2 | – | –
3 | CN(C)CC(=O)N1CCO[C@@H](COc2ncc(S(=O)(=O)NC(=O)c3ccc(N4CCN(CC5=C(c6ccc(Cl)cc6)CC(C)(C)CC5)CC4)cc3Oc3cccc4[nH]ncc34)cc2Cl)C1 [Example 426, N-[(5-chloro-6-{[(2R)-4-(N,N-dimethylglycyl)morpholin-2-yl]methoxy}pyridin-3-yl)sulfonyl]-4-(4-{[2-(4-chlorophenyl)-4,4-dimethylcyclohex-1-en-1-yl]methyl}piperazin-1-yl)-2-(1H-indazol-4-yloxy)benzamide] | 4.31 nM | 0.007 nM | 604.2 | – | –
4 | CC1(C)CCC(CN2CCN(c3ccc(C(=O)NS(=O)(=O)c4cnc(OCC5CCOCC5)c(Cl)c4)c(Oc4cccc5[nH]ncc45)c3)CC2)=C(c2ccc(Cl)cc2)C1 [Example 427, 4-(4-{[2-(4-chlorophenyl)-4,4-dimethylcyclohex-1-en-1-yl]methyl}piperazin-1-yl)-N-{[5-chloro-6-(tetrahydro-2H-pyran-4-ylmethoxy)pyridin-3-yl]sulfonyl}-2-(1H-indazol-4-yloxy)benzamide] | 85.6 nM | 0.002 nM | 34408.6 | – | –
5 | CC1(C)CCC(CN2CCN(c3ccc(C(=O)NS(=O)(=O)c4ccc(N[C@@H]5CCN(CC#N)C5)c([N+](=O)[O-])c4)c(Oc4cccc5[nH]cnc45)c3)CC2)=C(c2ccc(Cl)cc2)C1 [Example 428, 2-(1H-benzimidazol-4-yloxy)-4-(4-{[2-(4-chlorophenyl)-4,4-dimethylcyclohex-1-en-1-yl]methyl}piperazin-1-yl)-N-[(4-{[(3R)-1-(cyanomethyl)pyrrolidin-3-yl]amino}-3-nitrophenyl)sulfonyl]benzamide] | 15.6 nM | 0.003 nM | 5832.2 | – | –
6 | COCCOCCN1CC[C@@H](Nc2ccc(S(=O)(=O)NC(=O)c3ccc(N4CCN(CC5=C(c6ccc(Cl)cc6)CC(C)(C)CC5)CC4)cc3Oc3cccc4[nH]cnc34)cc2[N+](=O)[O-])C1 [Example 429, 2-(1H-benzimidazol-4-yloxy)-4-(4-{[2-(4-chlorophenyl)-4,4-dimethylcyclohex-1-en-1-yl]methyl}piperazin-1-yl)-N-{[4-({(3R)-1-[2-(2-methoxyethoxy)ethyl]pyrrolidin-3-yl}amino)-3-nitrophenyl]sulfonyl}benzamide] | 1.41 nM | < 0.01 nM | 140.7 | – | –
7 | CN(C)CC(=O)N1CC[C@@H](Nc2ccc(S(=O)(=O)NC(=O)c3ccc(N4CCN(CC5=C(c6ccc(Cl)cc6)CC(C)(C)CC5)CC4)cc3Oc3cccc4[nH]cnc34)cc2[N+](=O)[O-])C1 [Example 430, 2-(1H-benzimidazol-4-yloxy)-4-(4-{[2-(4-chlorophenyl)-4,4-dimethylcyclohex-1-en-1-yl]methyl}piperazin-1-yl)-N-[(4-{[(3R)-1-(N,N-dimethylglycyl)pyrrolidin-3-yl]amino}-3-nitrophenyl)sulfonyl]benzamide] | 0.998 nM | < 0.01 nM | 99.8 | – | –
8 | CC1(C)CCC(CN2CCN(c3ccc(C(=O)NS(=O)(=O)c4ccc(NCC5CN(CC#N)CCO5)c([N+](=O)[O-])c4)c(Oc4cccc5[nH]cnc45)c3)CC2)=C(c2ccc(Cl)cc2)C1 (stereo not drawn) [Example 431, 2-(1H-benzimidazol-4-yloxy)-4-(4-{[2-(4-chlorophenyl)-4,4-dimethylcyclohex-1-en-1-yl]methyl}piperazin-1-yl)-N-{[4-({[4-(cyanomethyl)morpholin-2-yl]methyl}amino)-3-nitrophenyl]sulfonyl}benzamide] | 6.77 nM | < 0.01 nM | 677.4 | – | –
9 | CC1(C)CCC(CN2CCN(c3ccc(C(=O)NS(=O)(=O)c4ccc(NCC5CN(C6CC6)CCO5)c([N+](=O)[O-])c4)c(Oc4cccc5[nH]cnc45)c3)CC2)=C(c2ccc(Cl)cc2)C1 (stereo not drawn) [Example 432, 2-(1H-benzimidazol-4-yloxy)-4-(4-{[2-(4-chlorophenyl)-4,4-dimethylcyclohex-1-en-1-yl]methyl}piperazin-1-yl)-N-[(4-{[(4-cyclopropylmorpholin-2-yl)methyl]amino}-3-nitrophenyl)sulfonyl]benzamide] | 9.3 nM | 0.023 nM | 408.8 | – | –
10 | CC1(C)CCC(CN2CCN(c3ccc(C(=O)NS(=O)(=O)c4ccc(NCC5CN(C6COC6)CCO5)c([N+](=O)[O-])c4)c(Oc4cccc5[nH]cnc45)c3)CC2)=C(c2ccc(Cl)cc2)C1 (stereo not drawn) [Example 433, 2-(1H-benzimidazol-4-yloxy)-4-(4-{[2-(4-chlorophenyl)-4,4-dimethylcyclohex-1-en-1-yl]methyl}piperazin-1-yl)-N-[(3-nitro-4-{[(4-oxetan-3-ylmorpholin-2-yl)methyl]amino}phenyl)sulfonyl]benzamide] | 2.29 nM | < 0.01 nM | – | – | –
11 | CC1(C)CCC(CN2CCN(c3ccc(C(=O)NS(=O)(=O)c4cnc(O[C@@H]5CCN(C(CF)CF)C5)c(Cl)c4)c(Oc4cccc5[nH]ncc45)c3)CC2)=C(c2ccc(Cl)cc2)C1 [Example 434, N-{[5-chloro-6-({(3R)-1-[2-fluoro-1-(fluoromethyl)ethyl]pyrrolidin-3-yl}oxy)pyridin-3-yl]sulfonyl}-4-(4-{[2-(4-chlorophenyl)-4,4-dimethylcyclohex-1-en-1-yl]methyl}piperazin-1-yl)-2-(1H-indazol-4-yloxy)benzamide] | 75.5 nM | 0.052 nM | 1459.4 | – | –
12 | CC1(C)CCC(CN2CCN(c3ccc(C(=O)NS(=O)(=O)c4ccc(N[C@@H]5CCN(C(CF)CF)C5)c([N+](=O)[O-])c4)c(Oc4cccc5[nH]ncc45)c3)CC2)=C(c2ccc(Cl)cc2)C1 [Example 435, 4-(4-{[2-(4-chlorophenyl)-4,4-dimethylcyclohex-1-en-1-yl]methyl}piperazin-1-yl)-N-{[4-({(3R)-1-[2-fluoro-1-(fluoromethyl)ethyl]pyrrolidin-3-yl}amino)-3-nitrophenyl]sulfonyl}-2-(1H-indazol-4-yloxy)benzamide] | 32.9 nM | 0.017 nM | – | – | –
13 | CC1(C)CCC(CN2CCN(c3ccc(C(=O)NS(=O)(=O)c4ccc(NC5CCN(C6CC6)CC5)c([N+](=O)[O-])c4)c(Oc4cccc5[nH]ncc45)c3)CC2)=C(c2ccc(Cl)cc2)C1 [Example 436, 4-(4-{[2-(4-chlorophenyl)-4,4-dimethylcyclohex-1-en-1-yl]methyl}piperazin-1-yl)-N-({4-[(1-cyclopropylpiperidin-4-yl)amino]-3-nitrophenyl}sulfonyl)-2-(1H-indazol-4-yloxy)benzamide] | – | – | – | 6.5 nM | 0.011 nM
14 | CN(C)CC(=O)N1CCO[C@H](CNc2ccc(S(=O)(=O)NC(=O)c3ccc(N4CCN(CC5=C(c6ccc(Cl)cc6)CC(C)(C)CC5)CC4)cc3Oc3cccc4[nH]cnc34)cc2[N+](=O)[O-])C1 [Example 437, 2-(1H-benzimidazol-4-yloxy)-4-(4-{[2-(4-chlorophenyl)-4,4-dimethylcyclohex-1-en-1-yl]methyl}piperazin-1-yl)-N-{[4-({[(2R)-4-(N,N-dimethylglycyl)morpholin-2-yl]methyl}amino)-3-nitrophenyl]sulfonyl}benzamide] | – | – | – | 0.514 nM | < 0.01 nM
15 | CN(C)CC(=O)N1CCO[C@@H](CNc2ccc(S(=O)(=O)NC(=O)c3ccc(N4CCN(CC5=C(c6ccc(Cl)cc6)CC(C)(C)CC5)CC4)cc3Oc3cccc4[nH]cnc34)cc2[N+](=O)[O-])C1 [Example 438, 2-(1H-benzimidazol-4-yloxy)-4-(4-{[2-(4-chlorophenyl)-4,4-dimethylcyclohex-1-en-1-yl]methyl}piperazin-1-yl)-N-{[4-({[(2S)-4-(N,N-dimethylglycyl)morpholin-2-yl]methyl}amino)-3-nitrophenyl]sulfonyl}benzamide] | – | – | – | 0.345 nM | < 0.01 nM
16 | CC1(C)CCC(CN2CCN(c3ccc(C(=O)NS(=O)(=O)c4ccc(NCC5CCOC5)c([N+](=O)[O-])c4)c(Oc4cccc5[nH]cnc45)c3)CC2)=C(c2ccc(Cl)cc2)C1 (stereo not drawn) [Example 439, 2-(1H-benzimidazol-4-yloxy)-4-(4-{[2-(4-chlorophenyl)-4,4-dimethylcyclohex-1-en-1-yl]methyl}piperazin-1-yl)-N-({3-nitro-4-[(tetrahydrofuran-3-ylmethyl)amino]phenyl}sulfonyl)benzamide] | – | – | – | 15 nM | < 0.01 nM
